Patent US10577349B2 (Sanford Burnham Prebys Medical Discovery Institute, priority 2015, dated 2020)
pIC50: −log10 of the molar value.

Tests used:
[1] = biological target: EmCV Cap-dependent translation; assay: In vitro translation assay, FF-EmCV-Ren construct, cap-dependent (FF luciferase); format: biochemical, rabbit reticulocyte lysates
From the text: (§1) The bicistronic dual-reporter constructs that contain the firefly luciferase (FF) sequence, followed by the (encephalomyocarditis virus) EmCV and Hepatitis C virus (HCV) IRES, respectively, and the Renilla reniformis (Ren) luciferase sequence, has been previously described (Bordeleau Me., et al. Functional characterization of IRESes by an inhibitor of the RNA helicase eIF4A. Nature chemical biology. 2006; 2:213-20). For measurement of translation from the FF-EmCV-Ren and FF-HCV-Ren constructs, rabbit reticulocyte lysates (RRL) (Life Technologies, Carlsbad, Calif., USA) and the Dual-Glo (Promega, Madison, Wis., USA) read-outs were chosen. Two μl rabbit reticulocyte lysates mixed with Translation Mix 20× (-Met) and Translation Mix 20× (-Leu) in a ratio of 1:1 were pre-incubated with test compounds in 1536-well plates for 1 h at room temperature. Then, translation was started by adding 0.1 μg RNA per well and incubated for 2 h at 30° C. After a short chill phase, 2.5 μl Dual-Glo reagent 1 was added to each well and incubated for 10 min before reading the FF luciferase activity with the ViewLux uHTS Microplate Imager (Perkin Elmer, Waltham, Mass., USA). Directly after, 2.5 μl Dual-Glo reagent 2 was dispensed to each well and incubated at room temperature for 10 min before reading the Ren luciferase activity on the ViewLux. To exclude the possibility that test compounds interfere with any of the luciferase activities, a counter assay was performed in which the compounds were added after the completion of the in vitro translation.

[2] = biological target: EmCV Cap-independent translation; assay: In vitro translation assay, FF-EmCV-Ren construct, cap-independent (Ren luciferase); format: biochemical, rabbit reticulocyte lysates
From the text: as §1

[3] = biological target: HCV cap-independent translation; assay: In vitro translation assay, FF-HCV-Ren construct, cap-independent (Ren luciferase); format: biochemical, rabbit reticulocyte lysates
From the text: as §1

[4] = tested on: A375; assay: 48 h Cytotoxicity A375; format: cell-based; details: Homo sapiens, A-375
[5] = biological target: HCV cap-dependent translation; assay: In vitro translation assay, FF-HCV-Ren construct, cap-dependent (FF luciferase); format: biochemical, rabbit reticulocyte lysates
From the text: as §1

SMILES | pIC50 [1] | pIC50 [2] | pIC50 [3] | pIC50 [4] | pIC50 [5]
Cc1ccnc(-c2c(C(=O)/C=C/c3ccccn3)c(=O)[nH]c3ccc(Cl)cc23)c1 [Compound 94, 3-((2E)-3-(2-pyridyl)prop-2-enoyl)-6-chloro-4-(4-methyl(2-pyridyl))hydroquinolin-2-one] | < 4.70 | < 4.70 | < 4.70 | 5.00 to 5.70 | < 4.70
O=C(/C=C/c1ccccn1)c1c(-c2ccc(OC(F)(F)F)cc2)c2cc(Cl)ccc2[nH]c1=O [Compound 88, 3-((2E)-3-(2-pyridyl)prop-2-enoyl)-6-chloro-4-[4-(trifluoromethoxy)phenyl]hydroquinolin-2-one] | 5.00 to 5.70 | 5.00 to 5.70 | 5.00 to 5.70 | 5.00 to 5.70 | 5.00 to 5.70
Cc1ccc(-c2c(C(=O)/C=C/c3ccccn3)c(=O)[nH]c3ccc(Cl)cc23)cc1 [Compound 86, 3-((2E)-3-(2-pyridyl)prop-2-enoyl)-6-chloro-4-(4-methylphenyl)hydroquinolin-2-one] | 5.00 to 5.70 | 5.00 to 5.70 | 5.00 to 5.70 | 5.00 to 5.70 | 5.00 to 5.70
O=C(/C=C/c1ccncc1)c1c(-c2ccccc2)c2ccncc2[nH]c1=O [Compound 23, 4-Phenyl-3-(3-pyridin-4-yl-acryloyl)-1H-[1,7]naphthyridin-2-one] | < 4.70 | 4.70 to 5.00 | < 4.70 | > 5.70 | < 4.70
COc1cncc(-c2c(C(=O)/C=C/c3cncc(F)c3)c(=O)[nH]c3ccc(Cl)cc23)c1 [Compound 97, 3-[(2E)-3-(5-fluoro(3-pyridyl))prop-2-enoyl]-6-chloro-4-(5-methoxy(3-pyridyl))hydroquinolin-2-one] | 5.00 to 5.70 | 5.00 to 5.70 | 5.00 to 5.70 | 5.00 to 5.70 | 4.70 to 5.00
O=C(/C=C/c1nc2ccccc2[nH]1)c1c(-c2cccs2)c2cc(Cl)ccc2[nH]c1=O [Compound 9, 3-(3-1H-Benzoimidazol-2-yl-acryloyl)-6-chloro-4-thiophen-2-yl-1H-quinolin-2-one] | 5.00 to 5.70 | 5.00 to 5.70 | 4.70 to 5.00 | 5.00 to 5.70 | 4.70 to 5.00
O=C(CCc1cncc(F)c1)c1c(-c2ccccc2)c2cc(Cl)ccc2[nH]c1=O [Compound 67, 6-Chloro-3-[3-(5-fluoro(3-pyridyl))propanoyl]-4-phenylhydroquinolin-2-one] | < 4.70 | < 4.70 | < 4.70 | < 4.70 | < 4.70
O=C(/C=C/c1cncc(Cl)c1)c1c(-c2ccccc2)c2cc(Cl)ccc2[nH]c1=O [Compound 115, (E)-6-chloro-3-(3-(5-chloropyridin-3-yl)acryloyl)-4-phenylquinolin-2(1H)-one] | 5.00 to 5.70 | 5.00 to 5.70 | 5.00 to 5.70 | > 5.70 | 5.00 to 5.70
COc1cncc(/C=C/C(=O)c2c(-c3ccccc3)c3cc(Cl)ccc3[nH]c2=O)c1 [Compound 66, 3-[(2E)-3-(5-methoxy(3-pyridyl))prop-2-enoyl]-6-chloro-4-phenylhydroquinolin-2-one] | 5.00 to 5.70 | 5.00 to 5.70 | 5.00 to 5.70 | > 5.70 | 5.00 to 5.70
O=C(/C=C/c1ccccc1)c1c(-c2cccnc2)c2cc(Cl)ccc2[nH]c1=O [Compound 7, 6-Chloro-3-(3-phenyl-acryloyl)-4-pyridin-3-yl-1H-quinolin-2-one] | 5.00 to 5.70 | 4.70 to 5.00 | 4.70 to 5.00 | 4.70 to 5.00 | 4.70 to 5.00
CCn1c(/C=C/C(=O)c2c(-c3ccccc3)c3cc(Cl)ccc3[nH]c2=O)nc2cc(Cl)c(Cl)cc21 [Compound 64, 6-Chloro-3-[3-(5,6-dichloro-1-ethyl-1H-benzoimidazol-2-yl)-acryloyl]-4-phenyl-1H-quinolin-2-one] | 5.00 to 5.70 | 4.70 to 5.00 | < 4.70 | 5.00 to 5.70 | 4.70 to 5.00
COc1ccc(-c2c(C(=O)/C=C/c3ccccn3)c(=O)[nH]c3ccc(Cl)cc23)cc1 [Compound 80, 3-((2E)-3-(2-pyridyl)prop-2-enoyl)-6-chloro-4-(4-methoxyphenyl)hydroquinolin-2-one] | 5.00 to 5.70 | 5.00 to 5.70 | 5.00 to 5.70 | 5.00 to 5.70 | 4.70 to 5.00
O=C(/C=C/c1cc2ccccc2s1)c1c(-c2ccccc2)c2cc(Cl)ccc2[nH]c1=O [Compound 36, 3-(3-Benzo[b]thiophen-2-yl-acryloyl)-6-chloro-4-phenyl-1H-quinolin-2-one] | 5.00 to 5.70 | 4.70 to 5.00 | 5.00 to 5.70 | 5.00 to 5.70 | 5.00 to 5.70
Cc1ccc(-c2c(C(=O)/C=C/c3nc4ccccc4[nH]3)c(=O)[nH]c3ccc(Cl)cc23)cc1 [Compound 4, 3-(3-1H-Benzoimidazol-2-yl-acryloyl)-6-chloro-4-p-tolyl-1H-quinolin-2-one] | 5.00 to 5.70 | 5.00 to 5.70 | 5.00 to 5.70 | 5.00 to 5.70 | 5.00 to 5.70
O=C(/C=C/c1cncc(F)c1)c1c(-c2cncc(F)c2)c2cc(Cl)ccc2[nH]c1=O [Compound 99, 3-[(2E)-3-(5-fluoro(3-pyridyl))prop-2-enoyl]-6-chloro-4-(5-fluoro(3-pyridyl))hydroquinolin-2-one] | 4.70 to 5.00 | 5.00 to 5.70 | 5.00 to 5.70 | 5.00 to 5.70 | 4.70 to 5.00
Cc1ccc(/C=C/C(=O)c2c(-c3ccccc3)c3cc(Cl)ccc3[nH]c2=O)cc1 [Compound 34, 6-Chloro-4-phenyl-3-(3-p-tolyl-acryloyl)-1H-quinolin-2-one] | 4.70 to 5.00 | 5.00 to 5.70 | 5.00 to 5.70 | 5.00 to 5.70 | 5.00 to 5.70
Nc1ccc2[nH]c(=O)c(C(=O)CCc3nc4ccccc4[nH]3)c(-c3ccccc3)c2c1 [Compound 14, 6-Amino-3-(3-1H-benzoimidazol-2-yl-propionyl)-4-phenyl-1H-quinolin-2-one] | < 4.70 | < 4.70 | < 4.70 | < 4.70 | < 4.70
O=C(/C=C/c1cncc(F)c1)c1c(-c2ccc(C(F)(F)F)cc2)c2cc(Cl)ccc2[nH]c1=O [Compound 83, 3-[(2E)-3-(5-fluoro(3-pyridyl))prop-2-enoyl]-6-chloro-4-[4-(trifluoromethyl)phenyl]hydroquinolin-2-one] | 5.00 to 5.70 | 5.00 to 5.70 | 5.00 to 5.70 | 5.00 to 5.70 | 5.00 to 5.70
COc1ccc(Cn2c(/C=C/C(=O)c3c(-c4ccccc4)c4cc(Cl)ccc4[nH]c3=O)nc3cc(Cl)ccc32)cc1 [Compound 54, (E)-6-chloro-3-(3-(5-chloro-1-(4-methoxybenzyl)-1H-benzo[d]imidazol-2-yl)acryloyl)-4-phenylquinolin-2(1H)-one] | 5.00 to 5.70 | 5.00 to 5.70 | 5.00 to 5.70 | 5.00 to 5.70 | 5.00 to 5.70
O=C(/C(Br)=C/c1cncc(F)c1)c1c(-c2ccccc2)c2cc(Cl)ccc2[nH]c1=O (single isomer, unassigned) [Compound 110, 3-[(2Z)-2-bromo-3-(5-fluoro(3-pyridyl))prop-2-enoyl]-6-chloro-4-phenylhydroquinolin-2-one] | 5.00 to 5.70 | 5.00 to 5.70 | 5.00 to 5.70 | 5.00 to 5.70 | 5.00 to 5.70
O=C(/C=C/c1nc2ccccc2[nH]1)c1c(-c2cccnc2)c2cc(Cl)ccc2[nH]c1=O [Compound 6, 3-(3-1H-Benzoimidazol-2-yl-acryloyl)-6-chloro-4-pyridin-3-yl-1H-quinolin-2-one] | 5.00 to 5.70 | 5.00 to 5.70 | 4.70 to 5.00 | < 4.70 | 4.70 to 5.00
O=C(/C=C/c1ccoc1)c1c(-c2ccccc2)c2cc(Cl)ccc2[nH]c1=O [Compound 50, 6-Chloro-3-(3-furan-3-yl-acryloyl)-4-phenyl-1H-quinolin-2-one] | 5.00 to 5.70 | 4.70 to 5.00 | < 4.70 | > 5.70 | < 4.70
Cn1c(/C=C/C(=O)c2c(-c3ccccc3)c3cc(Cl)ccc3[nH]c2=O)cc2ccccc21 [Compound 29, 6-Chloro-3-[3-(1-methyl-1H-indol-2-yl)-acryloyl]-4-phenyl-1H-quinolin-2-one] | < 4.70 | < 4.70 | < 4.70 | > 5.70 | 4.70 to 5.00
N#Cc1cncc(-c2c(C(=O)/C=C/c3cncc(F)c3)c(=O)[nH]c3ccc(Cl)cc23)c1 [Compound 105, 5-{3-[(2E)-3-(5-fluoro(3-pyridyl))prop-2-enoyl]-6-chloro-2-oxo-4-hydroquinolyl}pyridine-3-carbonitrile] | 4.70 to 5.00 | 4.70 to 5.00 | 4.70 to 5.00 | 5.00 to 5.70 | 4.70 to 5.00
